From PubChem BioAssay (NCI)
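Each compound was tested at five concentrations against cells in 96-well plates for 48 hours. The concentration for 50% growth inhibition is given as GI50. TGI marks complete inhibition of growth.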

Key:
Assay in all cases: growth of human tumour cells (NCI), 48 h
SK-MEL-5 melanoma = system: SK-MEL-5 melanoma
UACC-257 melanoma = system: UACC-257 melanoma
UACC-62 melanoma = system: UACC-62 melanoma
RPMI-8226 leukemia = system: RPMI-8226 leukemia
SN12C renal = system: SN12C renal
DU-145 prostate = system: DU-145 prostate
HL-60(TB) leukemia = system: HL-60(TB) leukemia
SF-539 CNS = system: SF-539 CNS
SR leukemia = system: SR leukemia
A549 NSCLC = system: A549 NSCLC
SNB-75 CNS = system: SNB-75 CNS
SNB-19 CNS = system: SNB-19 CNS
HT29 colon = system: HT29 colon
T-47D breast = system: T-47D breast
MDA-MB-231 breast = system: MDA-MB-231 breast
SW-620 colon = system: SW-620 colon
BT-549 breast = system: BT-549 breast
M14 melanoma = system: M14 melanoma
NCI/ADR-RES ovarian = system: NCI/ADR-RES ovarian
SF-268 CNS = system: SF-268 CNS
SK-MEL-2 melanoma = system: SK-MEL-2 melanoma
MDA-MB-435 = system: MDA-MB-435
MOLT-4 leukemia = system: MOLT-4 leukemia
NCI-H522 lung = system: NCI-H522 lung
NCI-H226 lung = system: NCI-H226 lung
HOP-62 NSCLC = system: HOP-62 NSCLC
SF-295 CNS = system: SF-295 CNS
U251 CNS = system: U251 CNS

`O=C(NCCCNc1cc(-c2cn(-c3ccccc3)nc2-c2cccc(O)c2)ccn1)Nc1ccc(F)cc1` gave a GI50 (SK-MEL-5 melanoma) of 1.64 µM, a TGI (SK-MEL-5 melanoma) of 4.83 µM and a GI50 (UACC-257 melanoma) of 3.07 µM. The TGI (UACC-257 melanoma) was 7.54 µM, the GI50 (UACC-62 melanoma) was 3.14 µM and the TGI (UACC-62 melanoma) was 6.6 µM. It also gave a GI50 (RPMI-8226 leukemia) of 0.865 µM, a TGI (RPMI-8226 leukemia) of 5.47 µM and a GI50 (SN12C renal) of 2.79 µM. The TGI (SN12C renal) was 8.37 µM, the GI50 (DU-145 prostate) was 4.22 µM and the TGI (DU-145 prostate) was 19.3 µM. For the same compound, the GI50 (HL-60(TB) leukemia) was 2.15 µM, the TGI (HL-60(TB) leukemia) was 14.2 µM and the GI50 (SF-539 CNS) was 1.98 µM. For the same compound, the TGI (SF-539 CNS) was 5.38 µM, the GI50 (SR leukemia) was 1.51 µM and the TGI (SR leukemia) was 13.8 µM. It also gave a GI50 (A549 NSCLC) of 3.12 µM, a TGI (A549 NSCLC) of 21.7 µM and a GI50 (SNB-75 CNS) of 0.543 µM. It also gave a TGI (SNB-75 CNS) of 3.18 µM, a GI50 (SNB-19 CNS) of 3.29 µM and a TGI (SNB-19 CNS) of 9.75 µM. The GI50 (HT29 colon) was 1.09 µM, the TGI (HT29 colon) was 4.99 µM and the GI50 (T-47D breast) was 1.89 µM. For the same compound, the TGI (T-47D breast) was 11 µM, the GI50 (MDA-MB-231 breast) was 2.18 µM and the TGI (MDA-MB-231 breast) was 7.78 µM. It also gave a GI50 (SW-620 colon) of 3.04 µM, a TGI (SW-620 colon) of 6.73 µM and a GI50 (BT-549 breast) of 2.18 µM. It also gave a TGI (BT-549 breast) of 11.6 µM, a GI50 (M14 melanoma) of 1.57 µM and a TGI (M14 melanoma) of 5.85 µM. It also gave a GI50 (NCI/ADR-RES ovarian) of 3.51 µM, a TGI (NCI/ADR-RES ovarian) of 12.5 µM and a GI50 (SF-268 CNS) of 2.61 µM. The TGI (SF-268 CNS) was 11.2 µM, the GI50 (SK-MEL-2 melanoma) was 4 µM and the TGI (SK-MEL-2 melanoma) was 10.1 µM. It also gave a GI50 (MDA-MB-435) of 1.66 µM, a TGI (MDA-MB-435) of 5.05 µM and a GI50 (MOLT-4 leukemia) of 1.25 µM. For the same compound, the TGI (MOLT-4 leukemia) was 15.6 µM, the GI50 (NCI-H522 lung) was 4.03 µM and the TGI (NCI-H522 lung) was 9.49 µM. For the same compound, the GI50 (NCI-H226 lung) was 3.39 µM, the TGI (NCI-H226 lung) was 8.91 µM and the GI50 (HOP-62 NSCLC) was 3.24 µM. The TGI (HOP-62 NSCLC) was 9.26 µM, the GI50 (SF-295 CNS) was 1.38 µM and the TGI (SF-295 CNS) was 4.84 µM. For the same compound, the GI50 (U251 CNS) was 2.05 µM and the TGI (U251 CNS) was 7.55 µM.
